{
  "source": "patent US20260174854A1",
  "about": "“Systems And Methods For Imaging Diverse Pathogenic Bacteria In Vivo With [18F]Fluoromannitol Positron Emission Tomography” (priority 2022, published 2026)",
  "key": {"live strain of bacteria": {"tested_on": "live strain of bacteria", "test": "murine myositis model, infection vs sterile inflammation, PET SUV / Patlak / CFU correlation (strain not stated at the result)", "type": "in vivo, mice", "description": "(§1) Referring now to FIGS. 2A-2D, a murine myositis model of musculoskeletal infection was used to determine whether [^18F]FMtl could differentiate sterile inflammation from infection in vivo by inoculating the right triceps brachii with a live strain of bacteria and the left triceps brachii with 10× heat-killed bacteria to generate an inflammatory response.\nTo quantify PET signal, volumes of interest (VOIs) were generated in the upper limbs of mice using CT for anatomical localization. […] Biodistribution studies were performed in successive cohorts of mice over 3 hours to determine dosimetry of [^18F]FMtl. […] Static PET SUV were correlated with bacterial colony-forming units (CFU) from excised tissue to determine sensitivity of [^18F]FMtl (see FIG. 2C), indicating [^18F]FMtl can reliably detect as little as 5 log10 (CFU/mL) of bacteria in vivo by SUV. It was also investigated whether parametric mapping could increase bacterial sensitivity of [^18F]FMtl in vivo, as Patlak slope (K,) is a quantitative measure of rate of uptake in tissue, rather than SUV, which is semi-quantitative and cannot delineate signal from blood pool contamination and tissue. Parametric imaging improved the bacterial sensitivity of [^18F]FMtl by roughly 20-fold (log10 CFU=1.3; 1.7×10^6 improved to […]) (see FIG. 2D)."}, "S. aureus [1]": {"tested_on": "S. aureus", "test": "competitive uptake assay of [^18F]FMtl in the presence of unlabeled D-mannitol", "type": "cell-based", "settings": "co-incubation in S. aureus cultures, FIG. 1C", "description": "FIG. 1C is a graph showing a competitive uptake assay of [^18F]FMtl in the presence of unlabeled D-mannitol in S. aureus;\n(§2) Accumulation of [^18F]FMtl was also evaluated in a broad panel of bacterial strains."}, "E. coli [2]": {"tested_on": "E. coli", "test": "mixed infection (polymicrobial) myositis model, PET/CT, E. coli-infected right triceps brachii", "type": "in vivo, mice", "settings": "for postmortem gamma counting of tissues: E. coli-infected muscle; for E. coli SUV, [^18F]FMtl versus [^18F]FDS: P=0.11", "description": "(§3) Referring now to FIGS. 3A-3B, the sensitivity of [^18F]FMtl compared to [^18F]FDS was also investigated in a mixed infection (polymicrobial) model. [^18F]FDS has shown remarkable specificity for Enterobacteriaceae in vivo, but has limited to no sensitivity toward gram-positive and other gram-negative organisms. Mice were inoculated with live E. coli (8.4×10^6 CFU) and S. aureus (8.8×10^6 CFU) in the right and left triceps brachii, respectively."}, "S. aureus [3]": {"tested_on": "S. aureus", "test": "mixed infection (polymicrobial) myositis model, PET/CT, S. aureus-infected left triceps brachii", "type": "in vivo, mice", "settings": "for postmortem gamma counting of tissues: S. aureus-infected muscle", "description": "as §3"}, "S. aureus [4]": {"tested_on": "S. aureus", "test": "in vitro accumulation of radiotracer in S. aureus cultures (gamma counts)", "type": "cell-based", "settings": "for accumulation in S. aureus cultures, tracer comparison: FIG. 1D, FMtl vs FDS P<0.001", "description": "as §2"}, "[5]": {"tested_on": "broad panel of bacterial strains", "test": "uptake in a broad panel of bacterial strains (pathogens of clinical interest)", "type": "cell-based", "settings": "60 minutes of incubation, FIG. 1B", "description": "FIG. 1B is a graph showing uptake of [^18F]FMtl in pathogens of clinical interest, determined at 60 minutes of incubation;\nas §2"}, "E. coli [6]": {"tested_on": "E. coli", "test": "in vitro accumulation of radiotracer in E. coli cultures (gamma counts)", "type": "cell-based", "description": "as §2"}, "S. aureus [7]": {"tested_on": "S. aureus", "test": "serial [^18F]FMtl PET during vancomycin treatment of S. aureus myositis", "type": "in vivo, mice", "settings": "FIG. 7A", "description": "A growing incidence of antimicrobial resistance in many bacterial pathogens is a serious concern, as treatment failure is a major threat to global health. Inappropriate antibiotic use is also the primary driver of antibiotic resistance, which places undue risk onto patients for adverse events such as allergic reactions and C. difficile infection. […] Mice were inoculated with S. areus in the right triceps brachii and imaged 8 hours post-infection with [^18F]FMtl, prior to initiation of vancomycin treatment (100 mg/kg every 8 hours, IP) and subsequently imaged at 24 and 72 hours post-treatment. […] The accumulation of [^18F]FMtl was further investigated in a panel of bacterial isolates from infected combat wounds of military service members (see FIG. 7B)."}, "S. aureus [8]": {"tested_on": "S. aureus", "test": "murine myositis model, live vs 10× heat-killed bacteria, PET imaging (S. aureus)", "type": "in vivo, mice", "settings": "gram-positive strain; infected vs inflamed triceps brachii, FIG. 2A", "description": "as §1"}, "E. coli [9]": {"tested_on": "E. coli", "test": "murine myositis model, live vs 10× heat-killed bacteria, PET imaging (E. coli)", "type": "in vivo, mice", "settings": "gram-negative strain; infected vs inflamed triceps brachii, FIG. 2A", "description": "as §1"}, "A. baumannii": {"tested_on": "A. baumannii", "test": "laceration wound model infected with A. baumannii, [^18F]FMtl PET", "type": "in vivo", "settings": "A. baumannii and several other ESKAPE pathogens", "description": "In an exemplary embodiment, [^18F]FMtl was able to differentiate sterile inflammation and bacterial infection resulting from S. aureus and E. coli in vivo in a murine myositis model using PET imaging. Exemplary embodiments of the present disclosure were extended to a laceration wound model infected with A. baumannii, an important pathogen in the nosocomial and battlefield setting. […] [^18F]FMtl PET was also able to monitor therapeutic efficacy of vancomycin against S. aureus in vivo. The ease of production of [^18F]FMtl facilitates wide dissemination from any radiopharmacy."}},
  "note": "“Also recorded” adds a separate entry of the source.",
  "data": [
    {"compound": "2-[^18F]fluoro-2-deoxy-glucose [[^18F]FDG, reference compound]", "values": [
      {"measurement": "differences in SUV between sites of infection and inflammation", "setting": "live strain of bacteria; FIG. 2B", "result": "unable to demonstrate significant differences in SUV"},
      {"measurement": "ability to distinguish infection from inflammation (PET)", "setting": "live strain of bacteria; infected vs inflamed triceps brachii", "result": "unable to distinguish infection from inflammation"}
    ]},
    {"compound": "OC[C@@H](O)[C@@H](O)[C@H](O)[C@H](O)CO", "note": "[D-mannitol]", "values": [
      {"measurement": "concentration of D-mannitol that blocked [^18F]FMtl accumulation in bacteria", "setting": "S. aureus [1]", "result": "≥ 10", "unit": "µg/mL"}
    ]},
    {"compound": "OC[C@@H](O)[C@@H](O)[C@H](O)[C@@H]([18F])CO", "note": "[[^18F]FDS, 2-[^18F]fluoro-2-deoxy-sorbitol]", "values": [
      {"measurement": "postmortem gamma counting of tissues", "setting": "E. coli [2]", "result": "only accumulated in E. coli-infected muscle"},
      {"measurement": "specificity, E. coli compared to S. aureus infection", "setting": "E. coli [2]; P=0.007", "result": "high specificity for E. coli compared to S. aureus"},
      {"measurement": "E. coli SUV, [^18F]FMtl versus [^18F]FDS", "setting": "E. coli [2]", "result": "no significant differences"},
      {"measurement": "postmortem gamma counting of tissues", "setting": "S. aureus [3]", "result": "only accumulated in E. coli-infected muscle"},
      {"measurement": "accumulation in S. aureus cultures, tracer comparison", "setting": "S. aureus [4]", "result": "not significantly different to negative control"}
    ]},
    {"compound": "OC[C@@H](O)[C@@H](O)[C@H](O)[C@H]([18F])CO", "note": "[[^18F]FMtl, [^18F]fluoromannitol]", "values": [
      {"measurement": "postmortem gamma counting of tissues", "setting": "E. coli [2]", "result": "uptake in both S. aureus and E. coli"},
      {"measurement": "E. coli SUV, [^18F]FMtl versus [^18F]FDS", "setting": "E. coli [2]", "result": "no significant differences"},
      {"measurement": "bacterial sensitivity with parametric imaging", "setting": "live strain of bacteria; Patlak parametric mapping", "result": "7.0×10^5 CFU"},
      {"measurement": "bacterial sensitivity before parametric imaging", "setting": "live strain of bacteria; SUV", "result": "1.7×10^6 CFU"},
      {"measurement": "time post-injection to significant differences in PET signal (infection detected and differentiated)", "setting": "live strain of bacteria; dynamic imaging, intravenous injection", "result": 5, "unit": "min"},
      {"measurement": "gamma counting of excised triceps brachii after scans", "setting": "live strain of bacteria; ex vivo, infected vs inflamed tissue", "result": "increased PET signal in the infected tissue compared to inflamed"},
      {"measurement": "bacteria reliably detected in vivo using the clinical standard SUV", "setting": "live strain of bacteria; mouse, in vivo", "result": "10^5 CFU"},
      {"measurement": "sensitivity between E. coli and S. aureus", "setting": "live strain of bacteria; mouse, in vivo", "result": "did not diminish"},
      {"measurement": "bacteria reliably detected in vivo by SUV (sensitivity)", "setting": "live strain of bacteria; static PET SUV correlated with CFU from excised tissue, FIG. 2C", "result": "5 log10 (CFU/mL)"},
      {"measurement": "increase of standardized uptake value (SUV) at infection compared to contralateral site of inflammation", "setting": "live strain of bacteria; summed frames 45-60 minutes post-injection, FIG. 2B", "result": 3.5, "unit": "fold"},
      {"measurement": "SUV / accumulation, E. coli versus S. aureus infection in the same animal", "setting": "S. aureus [3]; E. coli 8.4×10^6 CFU right, S. aureus 8.8×10^6 CFU left, P=0.19", "result": "No significant differences in SUV; also recorded: indistinguishable accumulation"},
      {"measurement": "accumulation in S. aureus infection, compared to [^18F]FDS", "setting": "S. aureus [3]; P<0.001", "result": "significantly higher"},
      {"measurement": "postmortem gamma counting of tissues", "setting": "S. aureus [3]", "result": "uptake in both S. aureus and E. coli"},
      {"measurement": "strains excepted from rapid and significant accumulation", "setting": "[5]", "result": "P. aeruginosa and E. faecium"},
      {"measurement": "accumulation in bacterial strains", "setting": "[5]; all strains tested except P. aeruginosa and E. faecium", "result": "rapid and significant accumulation"},
      {"measurement": "accumulation in E. coli cultures, tracer comparison", "setting": "E. coli [6]; FIG. 1D", "result": "accumulated"},
      {"measurement": "incorporation of tracer over time", "setting": "E. coli [6]; heat-killed bacteria", "result": "not heat-killed bacteria"},
      {"measurement": "incorporation of tracer over time", "setting": "E. coli [6]; live E. coli cultures", "result": "readily incorporated"},
      {"measurement": "relation of PET signal to CFU burden during treatment", "setting": "S. aureus [7]; vancomycin treatment", "result": "correlating closely with CFU burden"},
      {"measurement": "accumulation at site of infection (PET)", "setting": "S. aureus [8]", "result": "specifically accumulated in the site of infection"},
      {"measurement": "accumulation at site of infection (PET)", "setting": "E. coli [9]", "result": "specifically accumulated in the site of infection"},
      {"measurement": "accumulation in S. aureus cultures, tracer comparison", "setting": "S. aureus [4]", "result": "significantly higher"},
      {"measurement": "accumulation in S. aureus versus E. coli cultures", "setting": "S. aureus [4]; P=0.64", "result": "not significantly different"},
      {"measurement": "incorporation of tracer over time", "setting": "S. aureus [4]; heat-killed bacteria", "result": "not heat-killed bacteria"},
      {"measurement": "incorporation of tracer over time", "setting": "S. aureus [4]; live S. aureus cultures, FIG. 1A", "result": "readily incorporated"},
      {"measurement": "detection of infection by PET", "setting": "A. baumannii", "result": "rapidly and specifically detected"}
    ]},
    {"compound": "CN[C@H](CC(C)C)C(=O)N[C@H]1C(=O)N[C@@H](CC(N)=O)C(=O)N[C@H]2C(=O)N[C@H]3C(=O)N[C@H](C(=O)N[C@H](C(=O)O)c4cc(O)cc(O)c4-c4cc3ccc4O)[C@H](O)c3ccc(c(Cl)c3)Oc3cc2cc(c3O[C@@H]2O[C@H](CO)[C@@H](O)[C@H](O)[C@H]2O[C@H]2C[C@](C)(N)[C@H](O)[C@H](C)O2)Oc2ccc(cc2Cl)[C@H]1O", "note": "[vancomycin, reference compound]", "values": [
      {"measurement": "[^18F]FMtl PET signal during treatment", "setting": "S. aureus [7]; vancomycin 100 mg/kg every 8 hours, IP, imaged 8 hours post-infection, 24 and 72 hours post-treatment", "result": "diminished over the course of treatment"}
    ]}
  ]
}
